Laboratory results taken from US20230321083A1, “Inhibitors of GPR174 and Uses Thereof” (Omeros Corporation, priority 2016, published 2023).
pEC50: −log10 of the molar value. Where “and” joins values, the source holds several entries; their conditions need not be identical. Equal entries are not always repeated.

What was measured:
Format in all cases: cell-based
GPR174 [1] = target: T1, GPR174 (Homo sapiens, UniProt Q9BXC1); assay: Cellular Redistribution Assay (CRA) against GPR174; design: fused on or other part: No tag or reporter is given; conditions: for dose-response in CRA against GPR174: FIG. 5A; for pEC50: multiple values = separate experiments
Excerpt: One method for identifying compounds capable of modulating a receptor is using a cellular redistribution assay (“CRA”). Exemplary CRA methods are found in U.S. Pat. No. 7,309,576 issued to O'Dowd et al. and in O'Dowd et al., J. Biomol. Screen. 12:175-85, 2007. […] Incorporation of the NLS alters the cellular localization of the GPCR, such that the majority of the NLS-modified receptor is present in the cell interior. An NLS-modified GPCR, when interacting with a functionally active compound, is mostly localized on the cell surface. Thus, it becomes possible to identify receptor modulators without knowledge of the endogenous ligand or a surrogate ligand.
The inventors have identified a number of compounds that inhibit GPR174 using a CRA assay similar to that described in U.S. Pat. No. 7,309,576 and in O'Dowd et al., J. Biomol. Screen. 12:175-85, 2007. These compounds are described in detail below.
(§1) The inventors used a CRA similar to that described in U.S. Pat. No. 7,309,576 and O'Dowd et al., J. Biomol. Screen. 12:175-85, 2007 to identify compounds that are capable of interacting with GPR174 using a library of approximately 370,000 chemical entities. Briefly described, the CRA assay described in U.S. Pat. No. 7,309,576 involves artificially inserting a NLS into the dopamine D1 receptor (DRD1), which allows the receptor to traffic from the cell membrane to the cell interior, and that the binding of antagonists to the receptor retained the receptor at the cell surface, while removal of the ligand allowed the receptor to continue to internalize from the cell surface. Both antagonists and agonists that selectively bound the receptor retained the receptor on the plasma membrane. GPR174 constructs were generated for use in a CRA-based compound screening assay. From this screen, the inventors initially identified compounds of formula I-VI, as described herein and included in TABLE 1.
Target sequence in this assay (Q9BXC1 1-290 limits assumed): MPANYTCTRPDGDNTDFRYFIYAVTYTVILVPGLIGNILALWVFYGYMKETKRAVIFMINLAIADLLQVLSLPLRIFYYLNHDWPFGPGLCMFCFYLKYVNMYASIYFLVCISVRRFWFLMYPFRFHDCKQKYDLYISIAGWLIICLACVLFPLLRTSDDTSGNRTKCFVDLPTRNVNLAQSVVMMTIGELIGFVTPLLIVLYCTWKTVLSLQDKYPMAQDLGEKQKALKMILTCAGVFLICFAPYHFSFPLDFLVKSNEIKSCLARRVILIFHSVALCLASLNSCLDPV

CHRM1 = assay: Cellular Redistribution Assay (CRA) against CHRM1; conditions: FIG. 5B
Excerpt: as §1
The inventors also sought to validate that the compounds identified using the CRA are modulatory compounds. To this end, the above-described CRA was used to screen a library for compounds that interact with three control non-orphan receptors, and the results of this screen were compared to the results of screening the same library for compound that were identified using a Fluorometric Imaging Plate Reader (FLIPR) assay, a conventional technique commonly used to identify compounds interacting with non-orphan GPCRs signaling through Ca+. Three non-orphan GPCRs—Muscarinic acetylcholine receptor M1 (CHRM1), Adrenergic receptor alpha 1a (ADRA1a), and Neuropeptide S receptor (NPSR)—were screened against a 10,000-compound GPCR-focused library. Thirty interacting compound “hits” were identified using the CRA, and eighty-one hits were identified using the FLIPR for the CHRM1 receptor; 9 CRA hits and 29 FLIPR hits for the NPS receptor were identified; and 110 CRA hits and 110 FLIPR hits for ADRA1a.
In addition, the CRA can also provide the relative potencies of compounds against the target receptor.

GPR174 [2] = target: T1, GPR174; assay: CRE-Luc reporter Gs signaling assay, cells transfected with GPR174; design: host or cells: HEK293 or CHO cell lines (ATCC); conditions: for effect on Gs pathway in the presence of GPR174: CRE-Luc reporter; for nature of compound in GPR174 signaling assay: human GPR174 with pCRE-Luc
Method: (§2) Compounds were tested in the reporter system with increasing concentrations of GPR174-interacting compounds. GPR174 construct pCMV6-XL4-GPR174 or ADBR2, reporter of interest, pCRE-Luc or GL4.29 (3000 ng), and TK-renilla as an internal control (10 ng) with lipofectamine 2000 (60 ug) (Invitrogen, CA) according to the manufacturer's directions.
(§3) The DNA/lipofectamine 2000 mix (3000 μL) was incubated at room temperature for 30 minutes and then added into a 10 cm culture dish (Corning, NY) containing 70-90% confluent cultured cells, typically HEK293 or CHO cell lines (ATCC, VA), in 15 mL of media. The cells were further incubated for 4-6 hours at 37° C. and then media were removed and cells were detached with 2 mL trypsin (Life Technologies, CA). Media (26 mL) were added to the detached cells and 120 μL of transfected cells were transferred to each well on a 96-well plate. Increasing concentration of each compound in DMSO (1.2 μl) was added to the cells after plating into the 96-well plate. The cells were further incubated at 37° C. for various times. The media were removed and the cells lysed. Luciferase and renilla activities were measured with the Dual-luciferase assay system (Promega, WI) according to the manufacturer's directions. Typically, lysis buffer (25 μL) was added to the cells and incubated at room temperature for 20-30 minutes to allow for the cells to lyse. The lysate (10 μL) was measured for luciferase and renilla activity with LARII and Stop&Glo reagent (50 μL each) with a SpectraMax L (Molecular Devices, CA). Data were analyzed with either Excel (Microsoft, WA) or Prism 4.03 (GraphPad, CA).
(§4) ADBR2 is a GPCR, like GPR174, that activates the Gs signaling pathway.
Target sequence in this assay (Q9BXC1 whole entry, the tested form may be a part): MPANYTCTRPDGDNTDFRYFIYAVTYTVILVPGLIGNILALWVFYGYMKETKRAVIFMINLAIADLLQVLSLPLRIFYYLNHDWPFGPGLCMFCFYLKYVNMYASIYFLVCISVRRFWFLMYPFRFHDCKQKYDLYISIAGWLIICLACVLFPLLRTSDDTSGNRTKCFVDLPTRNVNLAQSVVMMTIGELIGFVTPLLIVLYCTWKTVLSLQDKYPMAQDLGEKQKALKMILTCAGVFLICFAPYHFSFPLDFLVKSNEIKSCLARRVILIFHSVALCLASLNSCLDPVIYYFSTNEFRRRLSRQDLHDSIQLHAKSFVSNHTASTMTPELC

ADBR2 = target: T2, ADBR2 (Homo sapiens, UniProt P07550); assay: CRE-Luc reporter Gs signaling assay, control receptor ADBR2
T2 construct: host or cells: HEK293 or CHO cell lines (ATCC)
T2 sequence (P07550 whole entry): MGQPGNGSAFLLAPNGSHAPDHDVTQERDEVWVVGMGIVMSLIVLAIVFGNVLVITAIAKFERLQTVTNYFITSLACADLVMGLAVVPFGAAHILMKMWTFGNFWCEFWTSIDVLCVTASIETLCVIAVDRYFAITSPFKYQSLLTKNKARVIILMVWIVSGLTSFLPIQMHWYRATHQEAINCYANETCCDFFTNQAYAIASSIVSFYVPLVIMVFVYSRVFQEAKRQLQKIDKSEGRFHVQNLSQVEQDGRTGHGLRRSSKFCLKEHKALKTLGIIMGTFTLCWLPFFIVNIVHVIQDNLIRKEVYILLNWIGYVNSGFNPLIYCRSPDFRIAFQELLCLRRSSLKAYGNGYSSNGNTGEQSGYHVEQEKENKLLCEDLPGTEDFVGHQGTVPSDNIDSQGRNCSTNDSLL
Method: as §2, §3, §4

human PBMCs = assay: Cytokines in culture supernatants of stimulated human PBMCs (ELISA / LEGENDplex); conditions: data not shown
Method: The effect of compound #10 on IL-2 and IFN-γ production in human PBMCs was determined as follows. PBMCs from a single donor were adjusted to a density of 2×10^6 cells/mL, stimulated with 100 ng/mL of anti-CD3 and 100 ng/mL of anti-CD28 antibodies and treated with 1 μM, 3 μM, or 10 μM of compound #10. Supernatant from these cells was taken on day 2 post-stimulation and the levels of IL-2 and IFN-γ were determined by ELISA assay using Ready-SET-Go ELISA kits from Affimetrix Ebioscience according to the manufacturer's instructions.
The effect of compound #10 on IL-2 production in human PBMCs was determined as follows. […] Supernatant from these cells was taken on day 3 post-stimulation and the levels of IL-2 were determined by ELISA assay using Ready-SET-Go™ ELISA kits from Affimetrix Ebioscience and LEGENDplex™ bead-based immunoassays from BioLegend according to the manufacturer's instructions.
The effect of compound #10 on IL-2 production in human PBMC from each donor was determined as follows. PBMC from each donor were adjusted to a density of 2×10^6 cells/mL, stimulated with 100 ng/mL of anti-CD3 and 100 ng/mL of anti-CD28 antibodies and treated with 30 μM compound #10. Supernatant from these cells was taken on day 2 post-stimulation and the levels of IL-2 were determined by ELISA assay using LEGENDplex™ bead-based immunoassays from BioLegend (San Diego, CA) according to the manufacturer's instructions.
The effect of compound #10 on the production of a panel of additional cytokines (interleukin 5 (IL-5), interleukin 13 (IL-13), interleukin 6 (IL-6), interleukin 9 (IL-9), interleukin 10 (IL-10), interferon gamma (IFN-γ), tumor necrosis factor alpha (TNF-α), interleukine 17A (IL-17A), interleukin 17F (IL-17F), interleukin 4 (IL-4) and interleukin 22 (IL-22)) in pooled human PBMC obtained from eight donors was determined as follows. PBMC from eight donors were pooled, then adjusted to a density of 2×10^6 cells/mL, stimulated with 100 ng/mL of anti-CD3 and 100 ng/mL of anti-CD28 antibodies and treated with 30 μM compound #10. Supernatant from these cells was taken on day 2 post-stimulation and the levels of IL-5, IL-13, IL-6, IL-9, IL-10, IFN-γ, TNF-α, IL-17A, IL-17F, IL-4 and IL-22 were determined by ELISA using LEGENDplex™ bead-based immunoassays from BioLegend (San Diego, CA) according to the manufacturer's instructions.

SMILES | effect on Gs pathway in the presence of GPR174 (GPR174 [2]) | effect on Gs pathway in the presence of ADBR2 (ADBR2) | Human GPR174 CRE Activity: nature of compound (GPR174 [2]) | nature of compound in GPR174 signaling assay (GPR174 [2]) | other results
CCOC(=O)N1CCN(c2cc(N3CCC(C)CC3)c(F)cc2[N+](=O)[O-])CC1 [Compound 1] | inhibited the Gs pathway | did not inhibit the Gs pathway |  |  | dose-response in CRA against GPR174 (GPR174 [1]): show a dose-response curve against GPR174; activity in CRA against CHRM1 (CHRM1): do not show any activity against CHRM1
CC(=O)c1ccc(N2CCN(C(=O)c3ccc(F)cc3)CC2)c(F)c1 [Compound 3] |  |  | Antagonist or allosteric modulator |  | dose-response in CRA against GPR174 (GPR174 [1]): show a dose-response curve against GPR174; activity in CRA against CHRM1 (CHRM1): do not show any activity against CHRM1
O=C(c1ccccc1)N1CCN(c2cc(N3CCCCC3)c(F)cc2[N+](=O)[O-])CC1 [Compound 6] | inhibited the Gs pathway | did not inhibit the Gs pathway |  |  | IL-2 levels in PBMC cultures (human PBMCs): increased IL-2 levels
CCOC(=O)N1CCN(c2cc(N3CCCCC3)c(F)cc2[N+](=O)[O-])CC1 [Compound 7] | inhibited the Gs pathway | did not inhibit the Gs pathway |  |  | 
O=[N+]([O-])c1cc(F)c(N2CCCCC2)cc1N1CCN(S(=O)(=O)c2ccccc2)CC1 [Compound 11] | inhibited the Gs pathway | did not inhibit the Gs pathway |  |  | pEC50 (GPR174 [1]): 5.82
CC1CCN(c2cc(N3CCN(C(=O)c4cccs4)CC3)c([N+](=O)[O-])cc2F)CC1 [Compound 12] |  |  |  |  | pEC50 (GPR174 [1]): 6.52
Cc1ccc(-c2nnc(Nc3ccccc3)c3ccccc23)cc1S(N)(=O)=O [Compound 19] | did not modulate the Gs pathway | did not modulate the Gs pathway | Antagonist or allosteric modulator | non-modulators | 
Cc1ccccc1Nc1nnc(-c2ccc(C)c(S(N)(=O)=O)c2)c2ccccc12 [Compound 20] |  |  | Antgonist or allosteric modulator | non-modulators | dose-response in CRA against GPR174 (GPR174 [1]): show a dose-response curve against GPR174; activity in CRA against CHRM1 (CHRM1): do not show any activity against CHRM1
Cc1cc(Cc2ccc(NC(=O)c3cccs3)c(C)c2)ccc1NC(=O)c1cccs1 [Compound 21] | did not modulate the Gs pathway | did not modulate the Gs pathway | Antagonist or allosteric modulator | non-modulator | 
COc1ccc(C2C3=C(CCCC3=O)NC3=C2C(=O)c2ccccc23)cc1 (stereo not drawn) [Compound 22] | inhibited the Gs pathway | did not inhibit the Gs pathway |  |  | pEC50 (GPR174 [1]): 5.17 and 5.28
CCOc1ccc(C2C3=C(CCCC3=O)NC3=C2C(=O)c2ccccc23)cc1 (stereo not drawn) [Compound 23] | inhibited the Gs pathway | did not inhibit the Gs pathway |  |  | 
CCCCOc1ccc(C2C3=C(CCCC3=O)NC3=C2C(=O)c2ccccc23)cc1 (stereo not drawn) [Compound 31] | inhibited the Gs pathway | did not inhibit the Gs pathway |  |  | 
O=C1CCCC2=C1C(c1ccc(OCCO)cc1)C1=C(N2)c2ccccc2C1=O (stereo not drawn) [Compound 33] | inhibited the Gs pathway | did not inhibit the Gs pathway |  |  | 
O=C1CCCC2=C1C(c1ccc3c(c1)OCCO3)C1=C(N2)c2ccccc2C1=O (stereo not drawn) [Compound 36] | inhibited the Gs pathway | did not inhibit the Gs pathway |  |  | 
O=C1CCCC2=C1C(c1ccncc1)C1=C(N2)c2ccccc2C1=O (stereo not drawn) [Compound 42] | inhibited the Gs pathway | did not inhibit the Gs pathway |  |  | 
C=C(C)COc1ccc(NC(=O)Nc2ccccc2)cc1 [Compound 56] |  |  |  | inverse agonist | 
O=C(N/N=C/c1cc(Cl)ccc1O)c1ccncc1 [Compound 57] |  |  | Antagonist or allosteric modulator | GPR174 antagonists or allosteric modulators | pEC50 (GPR174 [1]): 5.25
Cc1cc(C(=O)N/N=C/c2cc(Br)ccc2O)c(C)o1 [Compound 58] |  |  | Antagonist or allosteric modulator | GPR174 antagonists or allosteric modulators | pEC50 (GPR174 [1]): 5.43
